Measurements published in patent publication US20250154202A1, “CYCLIC EPITOPE TAGS” (BIONTECH SE, priority 2022, published 2025).
Where two headings read alike, the source gives them in different places.

Legend:
[1] = mouse, plasma
Method: (§1) Plasma stability measurements were performed by spiking 5 μl of a 1 mM compound stock solution in DMSO into 495 μl of human or mouse Li-heparin plasma (Innovative Research, Cat. No, IPLALIH5OML (human) and IMS-BC-N (Balb C mouse). The spiked plasma was distributed in 50 μl aliquots into capped PCR tubes for incubation at 37° C. At each time point (0, 2, 6, 24 hours*) 3*aliquots were withdrawn from the incubator. Enzymatic reactions were quenched directly after withdrawal by adding 100 μl of acetonitrile/formic acid=99/1 (v/v). Quenched samples were stored at ambient temperature until the end of the incubation period (24 hrs*). After centrifugation, the supernatant was transferred into fresh vials and analyzed by LC-MS/MS in ESI positive mode (Waters ACQUITY UPLC I-Class System (SM-FTN) with Xevo TQD triple quadrupole mass spectrometer with control software Waters MassLynx). […] Values below the limit of quantification (0.1 μM) and outliers of triplicate results were excluded from further calculations. An exponential regression curve was fitted onto the concentration results. Half-life times were calculated from the slope of the regression curve (t1/2=ln(2)/slope).
(§2) For some samples, as indicated below, the incubation time was 6 hours. The 24 hour data was measured in triplicates whereas the 6 hour data was measured in duplicates.

[2] = mouse, in vivo, iv; for AUC(0-inf): AUC0-inf; for AUC(0-t): AUC0-t
Method: (§3) C57BL/6NRj mice were obtained from Janvier Labs, France. In this study, approximately 8-week-old female mice were used.
(§4) Prior to administration into the lateral tail vein, the body weight of the animals was determined to calculate the individual volume of the injecting compound (5 mL/kg body weight). The injection, as well as the blood sampling, were carried out under short anesthesia (0.7 L/min O2, 1.7 L/min N2O, 2% Isoflurane). Blood was sampled from the retro-orbital plexus using microhematocrit capillary (Ø 0.8 mm) and collected into K3EDTA tubes, at the time points indicated in Table 10.
(§5) The plasma was separated by centrifugation (10,000×g; 10 min; 4° C.), aliquoted into microtubes and stored at −80° C.
(§6) 20 μl of each plasma sample was transferred into PCR tubes. 80 μl IS (internal standard)-solution in acetonitrile+1% FA was added for protein precipitation.
(§7) The sample tubes were sealed with pierceable cap mats and vortexed. After homogenization for 5 min in an ultrasonic bath the samples were centrifuged at 3000 rpm at ambient temperature for 15 min. 1 μl supernatant was injected into the instrument for LC-MS/MS analysis. For LC-MS/MS quantification a ExionLC™ UHPLC coupled to a QTRAP® 6500+ mass spectrometer (Sciex) was used in ESI positive mode. Parameters for mass spectrometry were listed in the tables below, Chromatographic separation was achieved on a ACQUITY UPLC BEH C18 column (Waters, 1.7 μm, 2.1×50 mm).
(§8) Compound concentrations in plasma samples were calculated using a 10-point calibration curve in plasma over a concentration range of 1 to 1000 ng/ml. QC samples of 1, 10, 100, 1000 ng/ml were analyzed before and after each dose group. Samples exceeding the upper limit of quantification (1000 ng/ml) were re-analyzed after 10-fold dilution in blank plasma. All calculations were performed in Sciex OS Version 1.7.0.36606 and MS-EXCEL®.
(§9) Pharmacokinetic parameters were calculated for both compounds using the software Kinetica (version 4.4.1, Thermo Scientific) applying a non-compartmental model (NCA).

in vivo = details: female, C57BL/6NRj, mouse, iv, 10 mg/kg
Method: as §3, §4, §5, §6, §7, §8, §9

in vitro [3] = details: Balb C, mouse, plasma
Method: as §1, §2

[4] = human, plasma
Method: as §1, §2

[5] = mouse, in vivo, iv
Method: as §3, §4, §5, §6, §7, §8, §9

in vitro [6] = details: human, plasma, Conc. (% of T0)
Method: as §1, §2

half-life [1]: 228 min
MRT inf ([2]; 3 mg/kg): 4 min
MRT last ([2]; 3 mg/kg): 3.7 min
Tmax ([2]; 3 mg/kg): 5 min
clearance ([2]; 3 mg/kg): 962 mL/min/kg
AUC(0-inf) ([2]; 3 mg/kg): ~52 ng·h/mL
AUC(0-t) ([2]; 3 mg/kg): 51 ng·h/mL
C0 ([2]; 3 mg/kg): ~656 ng/mL
Cmax ([2]; 3 mg/kg): 306 ng/mL
Vd ([2]; 3 mg/kg, Vss): 3.89 L/kg
Vd ([2]; 3 mg/kg, Vz): ~6.3 L/kg
MRT inf ([2]; 10 mg/kg): 4.1 min
MRT last ([2]; 10 mg/kg): 4 min
Tmax ([2]; 10 mg/kg): 5 min
clearance ([2]; 10 mg/kg): 724 mL/min/kg
AUC(0-inf) ([2]; 10 mg/kg): 230 ng·h/mL
AUC(0-t) ([2]; 10 mg/kg): 230 ng·h/mL
C0 ([2]; 10 mg/kg): ~2400 ng/mL
Cmax ([2]; 10 mg/kg): 1660 ng/mL
Vd ([2]; 10 mg/kg, Vss): 2.95 L/kg
Vd ([2]; 10 mg/kg, Vz): 4.48 L/kg
half-life (in vivo): 4.3 min
remaining at 2 h, 10 µM (in vitro [3]): 72.7%
remaining at 6 h, 10 µM (in vitro [3]): 33.8%
half-life ([4]; Flag (half-life, assay exceeded)): > 360 min
half-life ([4]; Half-life time): 646 min
AUCextra ([5]; 3 mg/kg): ~1.5^(1) %
Vc ([5]; 3 mg/kg): ~4574^(1) mL/kg
t1/2effective ([5]; 3 mg/kg): ~2.6^(1) min
t1/2initial ([5]; 3 mg/kg): ~1.6^(1) min
t1/2terminal ([5]; 3 mg/kg): ~4.5^(1) min
λinitial ([5]; 3 mg/kg): 0.45^(2) min^−1
λterminal ([5]; 3 mg/kg): 0.15^(2) min^−1
AUCextra ([5]; 10 mg/kg): 0.2%
Vc ([5]; 10 mg/kg): ~4175^(1) mL/kg
t1/2effective ([5]; 10 mg/kg): 2.8 min
t1/2initial ([5]; 10 mg/kg): ~1.3^(1) min
λinitial ([5]; 10 mg/kg): 0.52^(2) min^−1
λterminal ([5]; 10 mg/kg): 0.16 min⁻¹
remaining at 1 h, 10 µM (in vitro [6]): 89%
remaining at 3 h, 10 µM (in vitro [6]): 78.9%
remaining at 6 h, 10 µM (in vitro [6]): 66.9%
Substance: Ac-PSRLEEELRRRLTE-NH2 [SD14316, Ac-Pro-Ser-Arg-Leu-Glu-Glu-Glu-Leu-Arg-Arg-Arg-Leu-Thr-Glu-NH2]
